From US4579822A (priority 1983, dated 1986)
Read-outs that look alike come from different tables or passages of the source.

Assays:
DHAK (II) [1] = target: T1, DHAK (II) (Schizosaccharomyces pombe, UniProt O74215); experiment: Specificity of DHAK (II) for divalent metal cations; format: biochemical, Schizosaccharomyces pombe IFO 0354; conditions: for Relative activity DHAK (II) (metal cation): each divalent metal cation 4 mM, MgSO4 = 100%
T1 construct: DHAK (I) and DHAK (II) obtained from Schizosaccharomyces pombe IFO 0354; made in house; host or cells: Schizosaccharomyces pombe IFO 0354 (natural producer, not recombinant); cell extract, DEAE-Sepharose fraction at 0.16 M KCl, then Blue-Sepharose
T1 sequence (O74215 1-591): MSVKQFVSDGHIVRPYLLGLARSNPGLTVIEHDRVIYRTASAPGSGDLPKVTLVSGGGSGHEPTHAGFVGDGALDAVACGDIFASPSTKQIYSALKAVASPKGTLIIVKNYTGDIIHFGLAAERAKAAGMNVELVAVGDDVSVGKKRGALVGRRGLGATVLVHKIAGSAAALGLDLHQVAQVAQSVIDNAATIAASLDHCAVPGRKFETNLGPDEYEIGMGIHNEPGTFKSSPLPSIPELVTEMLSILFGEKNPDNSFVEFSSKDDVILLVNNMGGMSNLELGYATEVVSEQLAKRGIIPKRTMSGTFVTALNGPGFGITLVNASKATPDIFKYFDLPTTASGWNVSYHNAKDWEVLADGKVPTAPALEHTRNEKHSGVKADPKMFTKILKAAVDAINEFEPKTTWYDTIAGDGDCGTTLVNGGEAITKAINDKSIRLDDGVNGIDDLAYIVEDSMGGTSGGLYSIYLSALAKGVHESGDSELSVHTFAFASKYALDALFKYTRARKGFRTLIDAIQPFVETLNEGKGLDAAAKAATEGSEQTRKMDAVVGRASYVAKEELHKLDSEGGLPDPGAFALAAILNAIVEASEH
Method: (§1) The reaction is started by adding enzyme solution, and the decrease of the absorbance at 340 nm is measured spectrophotometrically at 25° C. In the blank assay, DHA is excluded from the reaction mixture. One unit of the enzyme activity is defined as the amount of enzyme which catalyzes the formation of 1 μmol NAD^+ in one minute under the above conditions. The above reaction is represented by the following equations: [drawing 3]
(§2) Each divalent metal cation (4 mM) was added to the reaction mixture and the activity of the enzyme was measured.

DHAK (I) [2] = target: T2, DHAK (I) (Schizosaccharomyces pombe, UniProt O13902); experiment: Specificity of DHAK (I) for divalent metal cations; format: biochemical, Schizosaccharomyces pombe IFO 0354; conditions: for Relative activity DHAK (I) (metal cation): each divalent metal cation 4 mM, MgSO4 = 100%
T2 construct: DHAK (I) and DHAK (II) obtained from Schizosaccharomyces pombe IFO 0354; made in house; host or cells: Schizosaccharomyces pombe IFO 0354 (natural producer, not recombinant); cell extract, DEAE-Sepharose fraction at 0.12 M KCl, then Blue-Sepharose
T2 sequence (O13902 1-580): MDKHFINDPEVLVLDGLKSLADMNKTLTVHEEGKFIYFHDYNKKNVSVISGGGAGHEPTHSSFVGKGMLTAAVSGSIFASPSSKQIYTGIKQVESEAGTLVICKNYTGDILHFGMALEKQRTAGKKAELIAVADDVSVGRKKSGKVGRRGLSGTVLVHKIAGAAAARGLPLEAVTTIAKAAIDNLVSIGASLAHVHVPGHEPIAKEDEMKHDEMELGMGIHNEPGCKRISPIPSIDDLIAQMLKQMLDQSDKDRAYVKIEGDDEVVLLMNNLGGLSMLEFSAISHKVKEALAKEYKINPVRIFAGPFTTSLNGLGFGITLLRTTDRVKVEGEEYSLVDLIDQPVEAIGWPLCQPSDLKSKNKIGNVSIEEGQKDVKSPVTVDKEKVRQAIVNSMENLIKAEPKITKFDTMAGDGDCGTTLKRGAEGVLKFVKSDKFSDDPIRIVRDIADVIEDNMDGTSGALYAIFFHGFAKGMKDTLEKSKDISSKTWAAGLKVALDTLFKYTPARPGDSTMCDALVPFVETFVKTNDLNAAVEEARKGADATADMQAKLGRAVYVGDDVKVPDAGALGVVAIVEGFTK
Method: as §1, §2

DHAK (II) [3] = experiment: Substrate specificity of DHAK (II); format: biochemical, Schizosaccharomyces pombe IFO 0354; conditions: for Relative activity DHAK (II) (substrate): each substrate 1.0 mM, pH 7.5, 25° C., DHA = 100%; for Action of DHAK (II) on substrate (in words): summary of Table 1
Method: (§3) The reaction mixture for measuring the substrate specificity of DHAK consists of 1.0 ml of 0.1M triethanolamine-HCl buffer (pH 7.5), 2.5 mM ATP, 4 mM MgSO4, 0.2 mM NADH, 1.3 mM phosphoenolpyruvate, 6 units of pyruvate kinase, 6 units of lactate dehydrogenase (Boehringer Mannheim GmbH), 0.01 ml of enzyme solution and each substrate (1.0 mM) as shown in Table 1. The reaction is started by adding enzyme solution and measured the decrease in the absorbance at 340 nm at 25° C. The above reaction is represented by the following equations: [drawing 4]

DHAK (I) [4] = target: T2, DHAK (I); experiment: Substrate specificity of DHAK (I); format: biochemical, Schizosaccharomyces pombe IFO 0354
Method: as §3

DHAK (I) [5] = target: T2, DHAK (I); experiment: Specificity of DHAK (I) for phosphate donor; format: biochemical, Schizosaccharomyces pombe IFO 0354; conditions: for Relative activity DHAK (I) (phosphate donor): Adenosine 5'-triphosphate = 100%
Method: as §1

DHAK (II) [6] = target: T1, DHAK (II); experiment: Specificity of DHAK (II) for phosphate donor; format: biochemical, Schizosaccharomyces pombe IFO 0354; conditions: for Relative activity DHAK (II) (phosphate donor): Adenosine 5'-triphosphate = 100%
Method: as §1

[7] = substrate: O=C(CO)CO; experiment: purified protein, by the assay type; conditions: other: pH 7.5, 25° C.
[8] = substrate: O=CC(O)CO; experiment: Km values of DHAK (I) for substrates and coenzyme; format: biochemical, Schizosaccharomyces pombe IFO 0354; conditions: other: pH 7.5, 25° C.
[9] = substrate: Nc1ncnc2c1ncn2[C@@H]1O[C@H](COP(=O)(O)OP(=O)(O)OP(=O)(O)O)[C@@H](O)[C@H]1O; experiment: Km values of DHAK (I) for substrates and coenzyme; format: biochemical, Schizosaccharomyces pombe IFO 0354; conditions: other: pH 7.5, 25° C.
[10] = substrate: O=CC(O)CO; experiment: Km values of DHAK (II) for substrates and coenzyme; format: biochemical, Schizosaccharomyces pombe IFO 0354; conditions: other: pH 7.5, 25° C.
[11] = substrate: Nc1ncnc2c1ncn2[C@@H]1O[C@H](COP(=O)(O)OP(=O)(O)OP(=O)(O)O)[C@@H](O)[C@H]1O; experiment: Km values of DHAK (II) for substrates and coenzyme; format: biochemical, Schizosaccharomyces pombe IFO 0354; conditions: other: pH 7.5, 25° C.
[12] = substrate: O=C(CO)CO; experiment: Km values of DHAK (II) for substrates and coenzyme; format: biochemical, Schizosaccharomyces pombe IFO 0354; conditions: other: pH 7.5, 25° C.
[13] = cation 4 mM, summary of Table 3
[14] = pH 7.5; read-out: Relative activity DHAK (I) (substrate)
[15] = pH 7.5, read-out: Relative activity DHAK (I) (substrate)
[16] = concentration in the reaction mixture

[Ca+2].[Cl-].[Cl-] [CaCl2]
Relative activity DHAK (II) (metal cation) (DHAK (II) [1]): 44%
Metal cation ranking for DHAK (I) (in words) (DHAK (I) [2]; [13]): maximum activity
Relative activity DHAK (I) (metal cation) (DHAK (I) [2]): 125%

O=C(CO)CO [DHA, dihydroxyacetone]
Relative activity DHAK (II) (substrate) (DHAK (II) [3]): 100%
Action of DHAK (II) on substrate (in words) (DHAK (II) [3]): act on
activity at 1000 µM (DHAK (I) [4]; [14]): 100%

O=P(O)(O)OP(=O)(O)OP(=O)(O)OC[C@H]1O[C@@H](n2cnc3c(O)ncnc32)[C@H](O)[C@@H]1O [Inosine 5'-triphosphate]
Relative activity DHAK (I) (phosphate donor) (DHAK (I) [5]): 0%
Relative activity DHAK (II) (phosphate donor) (DHAK (II) [6]): 0%

[Cl][Mn][Cl] [MnCl2]
Relative activity DHAK (II) (metal cation) (DHAK (II) [1]): 9%
Relative activity DHAK (I) (metal cation) (DHAK (I) [2]): 15%

CC(=O)CO [Acetol]
Relative activity DHAK (II) (substrate) (DHAK (II) [3]): 0%
activity at 1000 µM (DHAK (I) [4]; [15]): 0%

CC(=O)C(C)O (centres unmarked) [Acetoin]
Relative activity DHAK (II) (substrate) (DHAK (II) [3]): 0%
activity at 1000 µM (DHAK (I) [4]; [15]): 0%

O=c1ccn([C@@H]2O[C@H](COP(=O)(O)OP(=O)(O)OP(=O)(O)O)[C@@H](O)[C@H]2O)c(=O)[nH]1 [Uridine 5'-triphosphate]
Relative activity DHAK (I) (phosphate donor) (DHAK (I) [5]): 3.9%
Relative activity DHAK (II) (phosphate donor) (DHAK (II) [6]): 3.6%

O=S(=O)([O-])[O-].[Mg+2] [MgSO4]
Metal cation ranking for DHAK (II) (in words) (DHAK (II) [1]; [13]): maximum activity
Mg^2+ concentration giving sufficient activity of DHAK (II) (DHAK (II) [1]; [16]): ≥ 4 mM
Relative activity DHAK (II) (metal cation) (DHAK (II) [1]): 100%
Mg^2+ concentration giving sufficient activity of DHAK (I) (DHAK (I) [2]; [16]): ≥ 4 mM
Relative activity DHAK (I) (metal cation) (DHAK (I) [2]): 100%

OCCCO [1,3-Propanediol]
Relative activity DHAK (II) (substrate) (DHAK (II) [3]): 0%
activity at 1000 µM (DHAK (I) [4]; [15]): 0%

O=P(O)(O)OCC(O)CO (centres unmarked) [Glycerol-3-phosphate]
Relative activity DHAK (II) (substrate) (DHAK (II) [3]): 0%
activity at 1000 µM (DHAK (I) [4]; [14]): 0%

Nc1ccn([C@@H]2O[C@H](COP(=O)(O)OP(=O)(O)OP(=O)(O)O)[C@@H](O)[C@H]2O)c(=O)n1 [Cytidine 5'-triphosphate]
Relative activity DHAK (I) (phosphate donor) (DHAK (I) [5]): 0%
Relative activity DHAK (II) (phosphate donor) (DHAK (II) [6]): 0%

[Cl][Ni][Cl] [NiCl2]
Relative activity DHAK (II) (metal cation) (DHAK (II) [1]): 0%
Relative activity DHAK (I) (metal cation) (DHAK (I) [2]): 0%

Nc1ncnc2c1ncn2[C@@H]1O[C@H](COP(=O)(O)OP(=O)(O)OP(=O)(O)O)[C@@H](O)[C@H]1O [Adenosine 5'-triphosphate]
Relative activity DHAK (I) (phosphate donor) (DHAK (I) [5]): 100%
Phosphate donor ranking for DHAK (I) (in words) (DHAK (I) [5]; summary of Table 2): best phosphate donor
Relative activity DHAK (II) (phosphate donor) (DHAK (II) [6]): 100%
Phosphate donor ranking for DHAK (II) (in words) (DHAK (II) [6]; summary of Table 2): best phosphate donor

OCC(O)CO [Glycerol]
Relative activity DHAK (II) (substrate) (DHAK (II) [3]): 0%
activity at 1000 µM (DHAK (I) [4]; [14]): 0%

[Cl-].[Cl-].[Co+2] [CoCl2]
Relative activity DHAK (II) (metal cation) (DHAK (II) [1]): 22%
Relative activity DHAK (I) (metal cation) (DHAK (I) [2]): 29%

CC(O)CO (centres unmarked) [1,2-Propanediol]
Relative activity DHAK (II) (substrate) (DHAK (II) [3]): 0%
activity at 1000 µM (DHAK (I) [4]; [15]): 0%

O=C(O)C(O)CO (racemic) [DL-Glyceric acid]
Relative activity DHAK (II) (substrate) (DHAK (II) [3]): 0%
activity at 1000 µM (DHAK (I) [4]; [14]): 0%

Nc1nc2c(ncn2[C@@H]2O[C@H](COP(=O)(O)OP(=O)(O)OP(=O)(O)O)[C@@H](O)[C@H]2O)c(=O)[nH]1 [Guanosine 5'-triphosphate]
Relative activity DHAK (I) (phosphate donor) (DHAK (I) [5]): 0%
Relative activity DHAK (II) (phosphate donor) (DHAK (II) [6]): 0%

O=CC(O)CO (racemic) [DL-Glyceraldehyde]
Relative activity DHAK (II) (substrate) (DHAK (II) [3]): 12%
Action of DHAK (II) on substrate (in words) (DHAK (II) [3]): slightly
activity at 1000 µM (DHAK (I) [4]; [15]): 27%
Action of DHAK (I) on substrate (in words) (DHAK (I) [4]; summary of Table 1): slightly

B1: DHAK (I) (Schizosaccharomyces pombe 972h-) (protein)
chain: T2 sequence (O13902 1-580)
notes: DHAK (I) and DHAK (II) obtained from Schizosaccharomyces pombe IFO 0354; made in house; host or cells: Schizosaccharomyces pombe IFO 0354 (natural producer, not recombinant); cell extract, DEAE-Sepharose fraction at 0.12 M KCl, then Blue-Sepharose
Km [7]: 8.4 µM
Km [8]: 21 µM
Km [9]: 220 µM

B2: DHAK (II) (Schizosaccharomyces pombe 972h-) (protein)
chain: T1 sequence (O74215 1-591)
notes: DHAK (I) and DHAK (II) obtained from Schizosaccharomyces pombe IFO 0354; made in house; host or cells: Schizosaccharomyces pombe IFO 0354 (natural producer, not recombinant); cell extract, DEAE-Sepharose fraction at 0.16 M KCl, then Blue-Sepharose
Km [10]: 32 µM
Km [11]: 910 µM
Km [12]: 20 µM
